Data on 28 molecules can be found in US20160052898A1, “NOVEL COMPOUNDS” (BAYER PHARMA AKTIENGESELLSCHAFT, priority 2013, published 2016).

Read-outs that look alike come from different tables or passages of the source.

For test [1], the system named is constitutive active colorectal cancer cell (CRC) Wnt pathway. In words: HCT116 Super TopFlash cellular reporter assay (constitutive active Wnt pathway). The format is cell-based. Conditions: HCT116 TOP reporter cells, luciferase expression, 36 hours incubation, 50 μM to 15 nM. In outline:
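HCT116 cells (β-catenin ΔS45) stably carrying Super TopFlash, with a parallel FOP-control line, were plated 24 h ahead. They were exposed 36 h at 37 °C, 5% CO2 to compound from a 50 μM–15 nM, 3.16-fold pre-dilution series in CAFTY buffer (pH 7.4, 2 mM Ca2+, 0.01% BSA). Wnt signalling was read as luciferase luminescence.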

Test [2] has as its system HCT116 FOP control reporter cell line. In words: HCT116 FOP control vector reporter assay (non-functional TCF elements). The format is cell-based. The conditions noted are these: HCT116 FOP control reporter cells, luciferase expression, 36 hours incubation, 50 μM to 15 nM, read-out: HCT116 FOPFlash IC50. In outline: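 Stable HCT116 line carrying the non-functional FOP luciferase construct, 10000 cells/well plated 24 hrs before. Compounds 50 μM to 15 nM (3.16-fold steps) in CAFTY buffer pH 7.4 with 2 mM Ca2+, 36 hours at 37° C; luciferase luminescence read.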

On to `COc1ccc(NC(=O)c2ccc(-c3ccccc3)cc2)cc1NC(=O)C1(N2CCN(C3CC3)CC2)CC1` [Example 185, N-[3-({[l-(4-cyclopropylpiperazin-1-yl)cyclopropyl]carbonyl}amino}-4-melhoxyphenyl)biphenyl-4-carboxamide], for which the IC50 in test [1] (Homo sapiens, HCT-116, 36 h) is 374 nM; in test [2] (Homo sapiens, HCT-116, 36 h) it was no less than 50000 nM.
For `COC1CN(CC(=O)Nc2cc(C(=O)Nc3ccc(-c4ccccc4)cc3)ccc2OC2CC2)C1` [Example 186, N-(biphenyl-4-yl)-4-(cyclopropyloxy)-3-{[(3-methoxyazetidin-1-yl)acetyl]amino}benzamide], the IC50 is 385 nM in test [1] (Homo sapiens, HCT-116, 36 h) and no less than 50000 nM in test [2] (Homo sapiens, HCT-116, 36 h).
As for `COCc1ccc(C(=O)Nc2ccc(-c3ccccc3)cc2)cc1NC(=O)Cn1cccn1` [Example 187, N-(biphenyl-4-yl)-4-(methoxymethyl)-3-[(1H-pyrazol-1-ylacetyl)amino]benzamide], the IC50 is 423 nM in test [1] (Homo sapiens, HCT-116, 36 h) and no less than 50000 nM in test [2] (Homo sapiens, HCT-116, 36 h).
Taken in the same sequence, the figures for `CN(C)C1(C(=O)Nc2cc(NC(=O)c3ccc(-c4ccccc4)cc3)ccc2OC(F)(F)F)CC1` [Example 188, N-[3-({[1-(dimethylamino)cyclopropyl]carbonyl}amino)-4-(trifluoromethoxy)phenyl] biphenyl-4-carboxamide] were 456 nM and 33000 nM.
Taken in the same sequence, the figures for `COc1ccc(NC(=O)c2ccc(-c3ccccc3)cc2)cc1NC(=O)C1(N(C)C)CC1` [Example 189, N-[3-({[1-(dimethylamino)cyclopropyl]carbonyl}amino)-4-methoxyphenyl]biphenyl-4-carboxamide] were 479 nM and no less than 50000 nM.
Consider `O=C(CN1C[C@H]2C[C@@H]1CO2)Nc1cc(C(=O)Nc2ccc(-c3ccccc3)cc2)ccc1C(F)(F)F` [Example 190, N-(biphenyl-4-yl)-3-{[(1R,4R)-2-oxa-5-azabicyclo[2.2.1]hept-5-ylacetyl]amino}-4-(trifluoromethyl)benzamide], for which the IC50 was 568 nM in test [1] (Homo sapiens, HCT-116, 36 h) and no less than 50000 nM in test [2] (Homo sapiens, HCT-116, 36 h).
Regarding `O=C(CN1CCOCC1)Nc1cc(C(=O)Nc2ccc(-c3ccccc3)cc2)ccc1C(=O)NCCN1CCCC1` [Example 191, N4-(biphenyl-4-yl)-2-[(morpholin-4-ylacetyl)amino]-N1-[2-(pyrrolidin-1-yl)ethyl]terephthalamide], the IC50 in test [1] (Homo sapiens, HCT-116, 36 h) was 715 nM; in test [2] (Homo sapiens, HCT-116, 36 h), 12000 nM.
As for `O=C(CN1C[C@@H]2C[C@H]1CO2)Nc1cc(C(=O)Nc2ccc(-c3ccccc3)cc2)ccc1OC1CC1` [Example 192, N-(biphenyl-4-yl)-4-(cyclopropyloxy)-3-{[(1S,4S)-2-oxa-S-azabicyclo[2.2.1]hept-5-ylacetyl]amino}benzamide], the IC50 in test [1] (Homo sapiens, HCT-116, 36 h) is 785 nM; in test [2] (Homo sapiens, HCT-116, 36 h), no less than 50000 nM.
For `COCCOCc1ccc(C(=O)Nc2ccc(-c3ccccc3)cc2)cc1NC(=O)CN1CC2CCC(C1)O2` [Example 193, N-(biphenyl-4-yl)-4-[(2-methoxyethoxy)methyl]-3-[(8-oxa-3-azabicyclo[3.2.1]oct-3-ylacetyl)amino]benzamide], in that order: 810 nM and 17000 nM.
As for `Cc1noc(-c2ccc(C(=O)Nc3ccc(-c4ccccc4)cc3)cc2NC(=O)CN2CCOCC2)n1` [Example 194, N-(biphenyl-4-yl)-4-(3-methyl-1,2,4-oxadiazol-5-yl)-3-[(morpholin-4-ylacetyl)amino]benzamide], the IC50 was 864 nM in test [1] (Homo sapiens, HCT-116, 36 h) and no less than 50000 nM in test [2] (Homo sapiens, HCT-116, 36 h).
As to `COc1ccc(NC(=O)c2ccc(-c3ccc(O)cc3)cc2)cc1NC(=O)CN1CCOCC1` [Example 195, 4′-hydroxy-N-{4-methoxy-3-[(morpholin-4-ylacetyl)amino)phenyl} biphenyl-4-carboxamide], the IC50 in test [1] (Homo sapiens, HCT-116, 36 h) is 975 nM; in test [2] (Homo sapiens, HCT-116, 36 h), 39000 nM.
In the case of `COc1ccc(NC(=O)c2ccc(-c3cc(F)cc(F)c3)cc2F)cc1NC(=O)CN1CCOCC1` [Example 196, 3,3′,5′-trifluoro-N-{4-methoxy-3-[(morpholin-4-ylacetyl)amino]phenyl} biphenyl-4-carboxamide], the IC50 in test [1] (Homo sapiens, HCT-116, 36 h) was found to be 1170 nM; in test [2] (Homo sapiens, HCT-116, 36 h) it was 13000 nM.
With `CC(C(=O)Nc1cc(NC(=O)c2ccc(-c3ccccc3)cc2)ccc1C(F)(F)F)N1CC2CCC(C1)O2` (stereo not drawn) [Example 197, N-[3-{[(2S*)-2-(8-oxa-3-azabicydo[3.2.1]oct-3-yl)propanoyl]amino}-4-(trifluoromethyl)phenyl) biphenyl-4-carboxamide], the half-maximal inhibitory concentration (IC50) in test [1] was 1480 nM; in test [2], no less than 50000 nM.
In the case of `COc1ccc(NC(=O)c2ccc(-c3ccc(N(C)C)cc3)cc2)cc1NC(=O)CN1CCOCC1` [Example 198, 4′-(dimethylamino)-N-{4-methoxy-3-[(morpholin-4-ylacetyl)amino]phenyl} biphenyl-4-carboxamide], the IC50 in test [1] (Homo sapiens, HCT-116, 36 h) is 1500 nM; in test [2] (Homo sapiens, HCT-116, 36 h) it was no less than 50000 nM.
In the case of `COc1ccc(NC(=O)c2ccc(-c3cc(F)cc(F)c3)cc2)cc1NC(=O)CN1CCOCC1` [Example 199, 3′,5′-difluoro-N-{4-methoxy-3-[(morpholin-4-ylacetyl)amino]phenyl} biphenyl-4-carboxamide], the IC50 in test [1] (Homo sapiens, HCT-116, 36 h) is 1750 nM; in test [2] (Homo sapiens, HCT-116, 36 h), no less than 50000 nM.
For the molecule `COCCc1noc(-c2ccc(C(=O)Nc3ccc(-c4ccccc4)cc3)cc2NC(=O)CN2CCOCC2)n1` [Example 200, N-(biphenyl-4-yl)-4-[3-(2-methoxyethyl)-1,2,4-oxadiazol-5-yl]-3-[(morpholin-4-ylacetyl)amino]benzamide], the half-maximal inhibitory concentration (IC50) in test [1] (Homo sapiens, HCT-116, 36 h) is 1750 nM; in test [2] (Homo sapiens, HCT-116, 36 h), no less than 50000 nM.
`COc1ccc(C(=O)Nc2ccc(-c3ccccc3)cc2)cc1NC(=O)CN1C[C@H]2C[C@@H]1CO2` [Example 201, N-(biphenyl-4-yl)-4-methoxy-3-{[(1R,4R)-2-oxa-5-azabicyclo[2.2.1]hept-5-ylacetyl)amino}benzamide]: the IC50 was 1900 nM in test [1] (Homo sapiens, HCT-116, 36 h) and no less than 50000 nM in test [2] (Homo sapiens, HCT-116, 36 h).
For `COc1ccc(C(=O)Nc2ccc(-c3ccccc3)cc2)cc1NC(=O)CN1CCC(OC)C1` (centres unmarked) [Example 202, N-(biphenyl-4-yl)-4-methoxy-3-{[(3-methoxypyrrolidin-1-yl)acetyl]amino}benzamide], in that order: 1900 nM and no less than 50000 nM.
On to `COc1ccc(NC(=O)c2ccc(-c3ccccc3)c(F)c2)cc1NC(=O)CN1CCOCC1` [Example 203, 2-fluoro-N-{4-methoxy-3-[(morpholin-4-ylacetyl)amino]phenyl} biphenyl-4-carboxamide], for which the IC50 is 2020 nM in test [1] (Homo sapiens, HCT-116, 36 h) and no less than 50000 nM in test [2] (Homo sapiens, HCT-116, 36 h).
Regarding `O=C(CN1CCOCC1)Nc1cc(C(=O)Nc2ccc(-c3ccccc3)cc2)ccc1CO` [Example 204, N-(biphenyl-4-yl)-4-(hydroxymethyl)-3-[(morpholin-4-ylacetyl)amino]benzamide], the IC50 in test [1] (Homo sapiens, HCT-116, 36 h) was 2250 nM; in test [2] (Homo sapiens, HCT-116, 36 h) it was no less than 50000 nM.
On to `COc1ccc(NC(=O)c2ccc(-c3ccccc3)cc2)cc1NC(=O)CN1C[C@H]2C[C@@H]1CO2` [Example 205, N-(4-methoxy-3-{[(1R,4R)-2-oxa-5-azabicyclo[2.2.1]hept-5-ylacetyl]amino}phenyl) biphenyl-4-carboxamide], for which the IC50 in test [1] (Homo sapiens, HCT-116, 36 h) was 2450 nM; in test [2] (Homo sapiens, HCT-116, 36 h), no less than 50000 nM.
Taken in the same sequence, the figures for `COc1ccc(C(=O)Nc2ccc(-c3ccccc3)cc2)cc1NC(=O)C1(N2CCOCC2)CCC1` [Example 206, N-(biphenyl-4-yl)-4-methoxy-3-({[1-(morpholin-4-yl)cyclobutyl)carbonyl}amino)benzamide] were 2480 nM and no less than 50000 nM.
As for `COc1ccc(C(=O)Nc2ccc(-c3ccccc3)cc2)cc1NC(=O)CN1CC(OC)C1` [Example 207, N-(biphenyl-4-yl)-4-methoxy-3-{[(3-methoxyazetidin-1-yl)acetyl]amino}benzamide], the 50% inhibitory concentration (IC50) in test [1] (Homo sapiens, HCT-116, 36 h) is 2600 nM; in test [2] (Homo sapiens, HCT-116, 36 h) it was no less than 50000 nM.
In the case of `COc1ccc(NC(=O)c2ccc(-c3ccc4c(c3)CCO4)cc2)cc1NC(=O)CN1CCOCC1` [Example 208, 4-(2,3-dihydro-1-benzofuran-5-yl)-N-{4-methoxy-3-[(morpholin-4-ylacetyl)amino]phenyl} benzamide], the IC50 in test [1] (Homo sapiens, HCT-116, 36 h) was 3000 nM; in test [2] (Homo sapiens, HCT-116, 36 h) it was no less than 50000 nM.
For `COc1ccc(NC(=O)c2ccc(-c3cccc(N)c3)cc2)cc1NC(=O)CN1CCOCC1` [Example 209, 3′-amino-N-{4-methoxy-3-[(morpholin-4-ylacetyl)amino]phenyl} biphenyl-4-carboxamide], in that order: 3550 nM and no less than 50000 nM.
Turning to `COc1ccc(C(=O)Nc2ccc(-c3ccccc3)cc2)cc1N(C)C(=O)CN1CC2CCC(C1)O2` [Example 210, N-(biphenyl-4-yl)-4-methoxy-3-[methyl(8-oxa-3-azabicyclo[3.2.1]oct-3-ylacetyl)amino]benzamide], the IC50 in test [1] (Homo sapiens, HCT-116, 36 h) is 3600 nM; in test [2] (Homo sapiens, HCT-116, 36 h) it was no less than 50000 nM.
Regarding `NC(=O)COc1ccc(NC(=O)c2ccc(-c3ccccc3)cc2)cc1NC(=O)CN1CCOCC1` [Example 211, N-{4-(2-amino-2-oxoethoxy)-3-[(morpholin-4-ylacetyl)amino]phenyl} biphenyl-4-carboxamide], the IC50 in test [1] (Homo sapiens, HCT-116, 36 h) is 3900 nM; in test [2] (Homo sapiens, HCT-116, 36 h), no less than 50000 nM.
As to `COc1ccc(NC(=O)c2ccc(-c3ccccc3)cc2)cc1NC(=O)CN1C[C@@H](C)O[C@@H](C)C1` [Example 212, N-[3-({[(2R,6S)-2,6-dimethylmorpholin-4-yl]acetyl}amino)-4-methoxyphenyl]biphenyl-4-carboxamide], the IC50 is 4350 nM in test [1] (Homo sapiens, HCT-116, 36 h) and no less than 50000 nM in test [2] (Homo sapiens, HCT-116, 36 h).
